From ChEMBL document CHEMBL1201862, “PubChem BioAssay data set” (2004)
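All cell lines were grown in 96-well plates and treated with compound for 48 hours. GI50: concentration for 50% inhibition of growth.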 Active and inactive are the calls of the source. Rule as the data show it: active = GI50 up to about 1.1 µM and inactive = higher.

Columns and labels:
Test in all cases: NCI anticancer screen, dose series, 48 h
DU-145 = test system: DU-145
NCI-H522 = test system: NCI-H522
NCI-H460 = test system: NCI-H460
CAKI-1 = test system: CAKI-1
NCI-H23 = test system: NCI-H23
UO-31 = test system: UO-31
786-0 = test system: 786-0
SK-MEL-28 = test system: SK-MEL-28
Malme-3M = test system: Malme-3M
OVCAR-8 = test system: OVCAR-8
UACC-257 = test system: UACC-257
MOLT-4 = test system: MOLT-4
SF-539 = test system: SF-539
HCT-116 = test system: HCT-116
MDA-N = test system: MDA-N
SN12C = test system: SN12C
A498 = test system: A498
HOP-92 = test system: HOP-92
SK-OV-3 = test system: SK-OV-3
MCF7 = test system: MCF7

SMILES | GI50 (DU-145) | GI50 (NCI-H522) | GI50 (NCI-H460) | GI50 (CAKI-1) | GI50 (NCI-H23) | GI50 (UO-31) | GI50 (786-0) | GI50 (SK-MEL-28) | GI50 (Malme-3M) | GI50 (OVCAR-8) | GI50 (UACC-257) | GI50 (MOLT-4) | GI50 (SF-539) | GI50 (HCT-116) | GI50 (MDA-N) | GI50 (SN12C) | GI50 (A498) | GI50 (HOP-92) | GI50 (SK-OV-3) | GI50 (MCF7)
CC(=O)/C=C/C1=C(C)CCCC1(C)CC(C)C (stereo not given) | 69.3 µM (inactive) | 18.4 µM (inactive) | 29.1 µM (inactive) | 42.8 µM (inactive) | 24.8 µM (inactive) | 36.9 µM (inactive) | 19 µM (inactive) | 40.8 µM (inactive) | 30.6 µM (inactive) | 31.3 µM (inactive) | 22.2 µM (inactive) | 17.7 µM (inactive) | 31.9 µM (inactive) | 25.5 µM (inactive) | 28.9 µM (inactive) | 18.8 µM (inactive) | 24.2 µM (inactive) | 6.73 µM (inactive) | 55.5 µM (inactive) | 25.2 µM (inactive)
COc1cc2c(cc1OC)C1C(O)C(OC)C(Br)C3(Br)CCN(C2)C13 (stereo not given) | > 100 µM (inactive) | 50.8 µM (inactive) | 56.6 µM (inactive) | > 100 µM (inactive) | > 100 µM (inactive) | > 100 µM (inactive) | > 100 µM (inactive) | > 100 µM (inactive) | 42.6 µM (inactive) | 41.3 µM (inactive) | > 100 µM (inactive) | 54 µM (inactive) | > 100 µM (inactive) | > 100 µM (inactive) | > 100 µM (inactive) | > 100 µM (inactive) | > 100 µM (inactive) | 15.1 µM (inactive) | > 100 µM (inactive) | > 100 µM (inactive)
Cc1ccc(CN2CCN(Cc3ccc(C)o3)C(C)C2)o1 (stereo not given) | > 100 µM (inactive) | > 100 µM (inactive) | > 100 µM (inactive) | > 100 µM (inactive) | > 100 µM (inactive) | > 100 µM (inactive) | > 100 µM (inactive) | > 100 µM (inactive) | > 100 µM (inactive) | > 100 µM (inactive) | > 100 µM (inactive) | > 100 µM (inactive) | > 100 µM (inactive) | > 100 µM (inactive) | > 100 µM (inactive) | > 100 µM (inactive) | > 100 µM (inactive) | > 100 µM (inactive) | > 100 µM (inactive) | > 100 µM (inactive)
COCC1OC(OC2C3=C(C(C)C)CCC3(C)/C=C3\C(CCC3(O)COC)C(C)C2O)C(O)C2OC3OC12OC3(C)C1CO1 (stereo not given) | 72.6 µM (inactive) | 22.9 µM (inactive) | 32.7 µM (inactive) | 21.8 µM (inactive) | 90.2 µM (inactive) | 16.4 µM (inactive) | 60.8 µM (inactive) | 31.6 µM (inactive) | 34.7 µM (inactive) | 48 µM (inactive) | 40.3 µM (inactive) | 27.6 µM (inactive) | 24.8 µM (inactive) | 34 µM (inactive) | 54.1 µM (inactive) | 50.9 µM (inactive) | 44 µM (inactive) | 17.2 µM (inactive) | 51.8 µM (inactive) | 45.5 µM (inactive)
Cn1c2c(c3ccccc31)CCN(CCCCN1CCN(c3ccccc3)CC1)C2=O | 35.9 µM (inactive) | 42 µM (inactive) | 28.6 µM (inactive) | 56.4 µM (inactive) | 35.6 µM (inactive) | 17.3 µM (inactive) | 29.6 µM (inactive) | 15.8 µM (inactive) | 8.04 µM (inactive) | 47.6 µM (inactive) | 5.86 µM (inactive) | 7.38 µM (inactive) | 34 µM (inactive) | 12.9 µM (inactive) | 21.6 µM (inactive) | > 65.6 µM (inactive) | 45 µM (inactive) | > 29.1 µM (inactive) | > 100 µM (inactive) | 19.2 µM (inactive)
CCN(CC)C(=O)CCN1CC1 | > 10 µM (inactive) | > 10 µM (inactive) | > 10 µM (inactive) | > 10 µM (inactive) | > 10 µM (inactive) | > 10 µM (inactive) | > 10 µM (inactive) | > 10 µM (inactive) | > 10 µM (inactive) | > 10 µM (inactive) | > 10 µM (inactive) | > 10 µM (inactive) | > 10 µM (inactive) | > 10 µM (inactive) | > 10 µM (inactive) | > 10 µM (inactive) | > 10 µM (inactive) | > 10 µM (inactive) | > 10 µM (inactive) | > 10 µM (inactive)
C/C(=N\NC(=S)N(C)CCN(C)C(=S)N/N=C(\C)c1ccccn1)c1ccccn1 | 1.11 µM (active) | 0.731 µM (active) | 0.509 µM (active) | 1.78 µM (inactive) | 4.38 µM (inactive) | 0.791 µM (active) | > 100 µM (inactive) | 1.73 µM (inactive) | 0.826 µM (active) | 0.345 µM (active) | 0.774 µM (active) | 0.479 µM (active) | 1.66 µM (inactive) | 0.281 µM (active) | 3.71 µM (inactive) | 1.05 µM (active) | 0.565 µM (active) | 2.72 µM (inactive) | 4.21 µM (inactive) | 2.77 µM (inactive)
C=C1CC(C)(COc2ccc3ccc(=O)oc3c2)OC1=O (stereo not given) | 3.22 µM (inactive) | 0.733 µM (active) | 6.62 µM (inactive) | 2.03 µM (inactive) | 2.29 µM (inactive) | 15.8 µM (inactive) | 1.42 µM (inactive) | 2.94 µM (inactive) | 1.01 µM (active) | 4.72 µM (inactive) | 0.671 µM (active) | 1.18 µM (inactive) | 2.65 µM (inactive) | 1.14 µM (inactive) | 0.951 µM (active) | 8.22 µM (inactive) | 7.45 µM (inactive) | 1.12 µM (inactive) | 8.15 µM (inactive) | 1.48 µM (inactive)
COc1ccc2nc3c([N+](=O)[O-])ccc4c3c(c2c1)N=CN4CCCN(C)C | 2.52 µM (inactive) | 1.34 µM (inactive) | 0.773 µM (active) | 1.27 µM (inactive) | 4.27 µM (inactive) | 2.38 µM (inactive) | 0.614 µM (active) | 10 µM (inactive) | 6.3 µM (inactive) | 1.3 µM (inactive) | 3.78 µM (inactive) | 0.23 µM (active) | 0.944 µM (active) | 0.419 µM (active) | 4.62 µM (inactive) | 1.97 µM (inactive) | 5.6 µM (inactive) | 1.99 µM (inactive) | 4.4 µM (inactive) | 0.733 µM (active)
COc1ccc2ccccc2c1/C=C/C(=O)c1ccccc1 | 2.4 µM (inactive) | 2.46 µM (inactive) | 1.79 µM (inactive) | 4.8 µM (inactive) | 2.6 µM (inactive) | 2.82 µM (inactive) | 2.87 µM (inactive) | 5.96 µM (inactive) | 9.33 µM (inactive) | 2.33 µM (inactive) | 4.05 µM (inactive) | 2.84 µM (inactive) | 2.74 µM (inactive) | 2.99 µM (inactive) | 2.94 µM (inactive) | 2.88 µM (inactive) | 3.56 µM (inactive) | 1.69 µM (inactive) | 3.62 µM (inactive) | 3.25 µM (inactive)
O=C1OC[C@@H]2Cc3c([nH]c4ccccc34)[C@@H](c3cc(O)c(O)c(O)c3)N12 | 68.2 µM (inactive) | 5.09 µM (inactive) | 37.8 µM (inactive) | 8.67 µM (inactive) | 29.4 µM (inactive) | 27.3 µM (inactive) | 20.6 µM (inactive) | 17.3 µM (inactive) | 4.37 µM (inactive) | 16.4 µM (inactive) | 2.99 µM (inactive) | 32.6 µM (inactive) | 18.9 µM (inactive) | 25.3 µM (inactive) | 5.97 µM (inactive) | 26.9 µM (inactive) | 12 µM (inactive) | > 100 µM (inactive) | > 100 µM (inactive) | 21.2 µM (inactive)
COc1cc2c(cc1OCCCC(=O)Nc1cc(C(=O)Nc3cc(C(=O)Nc4cc(C(=O)NCCCN(C)C)n(C)n4)n(C)c3)n(C)c1)N=CC1CCCN1C2=O (stereo not given) | 32.1 µM (inactive) | 2.28 µM (inactive) | 25.9 µM (inactive) | 25.1 µM (inactive) | 25.8 µM (inactive) | 22.2 µM (inactive) | 22.3 µM (inactive) | 17.1 µM (inactive) | 18.7 µM (inactive) | 33 µM (inactive) | 19.7 µM (inactive) | 4.01 µM (inactive) | 23.1 µM (inactive) | 51.4 µM (inactive) | 20 µM (inactive) | 22.5 µM (inactive) | 29.2 µM (inactive) | 21.3 µM (inactive) | 40.6 µM (inactive) | 16.8 µM (inactive)
O=C1CCC(NC(=O)c2ccccc2)C(=O)N1 (stereo not given) | > 100 µM (inactive) | > 100 µM (inactive) | > 100 µM (inactive) | > 100 µM (inactive) | > 100 µM (inactive) | > 100 µM (inactive) | > 100 µM (inactive) | > 100 µM (inactive) | > 100 µM (inactive) | > 100 µM (inactive) | > 100 µM (inactive) | 2.97 µM (inactive) | > 100 µM (inactive) | > 100 µM (inactive) | > 100 µM (inactive) | > 100 µM (inactive) | > 100 µM (inactive) | > 100 µM (inactive) | > 100 µM (inactive) | > 100 µM (inactive)
CC(=O)OC(C)(C)CCC(=O)[C@](C)(O)[C@H]1[C@H](O)C[C@@]2(C)[C@@H]3CC=C4C(C)=C(OC5OC(CO)C(O)C(O)C5O)C(=O)C[C@@H]4[C@]3(C)C(=O)C[C@]12C (stereo not given in full) | > 100 µM (inactive) | > 100 µM (inactive) | > 100 µM (inactive) | > 100 µM (inactive) | > 100 µM (inactive) | > 100 µM (inactive) | > 100 µM (inactive) | > 100 µM (inactive) | > 100 µM (inactive) | > 100 µM (inactive) | > 100 µM (inactive) | > 100 µM (inactive) | > 100 µM (inactive) | > 100 µM (inactive) | > 100 µM (inactive) | > 100 µM (inactive) | > 100 µM (inactive) | > 100 µM (inactive) | > 100 µM (inactive) | > 100 µM (inactive)
